Test results published in patent US20250057928A1, “VACCINE COMPOSITION FOR INDUCING ANTI-IL-23 ANTIBODY” (OSAKA UNIVERSITY, priority 2021, published 2025).
Where no end group is shown, it is not given here.

Tests used:
Format in all cases: in vivo
BALB/c mice [1] = assay: rmIL-23-induced mouse auricle inflammation model
Protocol: AJP001 conjugated peptide (SEQ ID NO: 2) was dissolved in physiological saline and intradermally administered to BALB/c mice (female, 6-week-old, N=8) at 1 mg/body 3 times at two-week intervals. At the time point of 6 weeks after the initial administration, rmIL-23 was administered intradermally to the ear to induce inflammation. With the first administration as Day 0, rmIL-23 was administered 4 times in total on Days 2, 4, and 7. As a control group, an rmIL-23 group without administration of peptide was provided. Auricular thickness was measured using a thickness gauge on each day of administration of rmIL-23 and on Day 9. In order to measure the mRNA expression of IL-17A, IL-22, IL-1β, LCN-2, and CXCL-2 in the auricle, the auricle was collected on the third day of rmIL-23 administration under the same conditions. For mRNA evaluation, a normal group without administration of rmIL-23 was set. […] Using TaqMan Gene Expression Assays (S18: Mm02601777_g1; CXCL-2: Mm00436450_m1; IL-17A: Mm00439618_m1; IL-22: Mm01226722_m1; IL-1β: Mm00434228_m1; LCN-2: Mm01324470_m1), Ct value was measured using Applied Biosystems 7900HT Fast Real Time PCR System. The mRNA expression level was calculated by the ΔΔCt method and evaluated as a relative value to the normal group. […]

BALB/c mouse = assay: TNBS-induced mouse colitis model
Protocol: AJP001 conjugated peptide (SEQ ID NO: 2) was dissolved in physiological saline, mixed with an equal amount of 1 mg/mL Type-B/K CpG-ODN K3 (GeneDesign, Inc., hereinafter sometimes to be referred to as “CpG”), and subcutaneously administered to BALB/c mouse (female, 6-week-old, N=10) at 1 mg/body 3 times at two-week intervals. At the time point of 6 weeks after the initial administration, TNBS dissolved in 30% ethanol was administered by intestinal infusion at 2 mg/body. With the first administration of TNBS as Day 0, TNBS was administered by intestinal infusion at 3 mg/body on Day 7 to induce colitis. A Normal group and a 30% EtOH group, each without administration of TNBS, a Saline/TNBS group with administration of TNBS but without administration of the peptide, and a CpG/INBS group with administration of only an adjuvant were provided. Body weight was measured on Days 1, 2, 3, 4, 7, 8, 9, and 10, including the day of TNBS administration. After euthanasia by cardiac blood collection under deep anesthesia on Day 10, the obtained serum was measured for the antibody titer (GMT) and binding to mIL-23 by the ELISA method (same method as in Example 1). In addition, large intestinal tissue was collected, the length (cm) of the large intestine was measured, a 2 cm region from the anus was subjected to the measurement of cytokine mRNA expression, and a 2 to 4 cm region was subjected to histopathological examination. As to the expression of cytokine mRNA, the region was bead disrupted under ice-cooling, total RNA was extracted using RNeasy Fibrous Tissue Kit (Qiagen), and then cDNA of the extracted RNA was prepared using High-Capacity cDNA Reverse Transcription Kit ([…]). Using TaqMan Gene Expression Assays (GAPDH: Mm99999915_g1; IL-17A: Mm00439618_m1; IL-17F:Mm00521423_m1; IL-22:Mm01226722_m1; IL-23:Mm00518984_m1; IL-1β:Mm00434228_m1), Ct value was measured using Applied Biosystems 7900HT Fast Real Time PCR System. The mRNA expression level was calculated by the ΔΔCt method and evaluated as a relative value to the normal group. For histopathological examination, the collected large intestine was fixed with 10% neutral formalin, and then a specimen was prepared according to a conventional method and stained with HE. The HE-stained specimen was observed under a microscope, scored for inflammatory cell infiltration (Grade: 0-3), depth of colorectal tissue damage (Grade: 0-3), and range of colorectal mucosal damage (Grade: 0-4), and the total score was calculated.

BALB/c mice [2] = assay: rhIL-23-induced mouse auricle inflammation model; details: 1 mg/body 3 times
Protocol: AJP001 conjugated peptide (SEQ ID NO: 6) was dissolved in physiological saline and administered to BALB/c mice (female, 6-week-old, N=8) at 1 mg/body 3 times at two-week intervals. At the time point of 6 weeks after the initial administration, rhIL-23 was administered intradermally to the ear to induce inflammation. rhIL-23 was administered every day and 4 times in total. As a control group, an rhIL-23 group without administration of AJP001 conjugated peptide was provided. Auricular thickness was measured using a thickness gauge at the time points of 3 days and 4 days after rhIL-23 administration. In addition, the mRNA expression of IL-17A, IL-22, IL-1β, LCN-2, and CXCL-2 in the auricle was measured. The results of efficacy evaluation of the AJP001 conjugated peptide (SEQ ID NO: 6) on auricular thickness and mRNA expression are shown in FIG. 6. In FIG. 6, “*” means that it is significant (P<0.05) compared with “rhIL-23”. “#” means that it is significant (P<0.05) compared with “Normal (normal group)”.

SEQ ID NO 2: AJP001-Ahx-B cell epitope peptide conjugate; epitope SSSQQWQR (mouse 152-159) (not fully specified (N-terminus); listed as Mus musculus)
suppressive action: mRNA expression of IL-17A, IL-22, IL-1β, LCN-2, and CXCL-2 in auricle (BALB/c mice [1]; 1 mg/body 3 times, third day of rmIL-23 administration) | increase in auricular thickness (BALB/c mice [1]; 1 mg/body intradermal 3 times, rmIL-23 intradermal to ear from week 6) | shortened large intestine length (BALB/c mouse; 1 mg/body with CpG 3 times, Day 10) | inflammatory changes in large intestine tissues (BALB/c mouse; 1 mg/body with CpG 3 times, Day 10, HE) | mRNA expression of IL-17A, IL-22, and IL-1β in tissues (BALB/c mouse; 1 mg/body with CpG 3 times, Day 10, large intestinal tissue) | body weight loss (BALB/c mouse; BALB/c mice, 1 mg/body subcutaneous with CpG-ODN K3, 3 times, TNBS Day 0 and Day 7, vs Saline/TNBS or CpG/TNBS)

SEQ ID NO 6: AJP001-Ahx-B cell epitope peptide conjugate; epitope SPSQPWQR (human 151-158) (not fully specified (N-terminus); listed as Homo sapiens)
suppressive action: mRNA expression of IL-17A, IL-22, IL-1β, LCN-2, and CXCL-2 in auricle (BALB/c mice [2]; rhIL-23 to ear) | increase in auricular thickness (BALB/c mice [2]; rhIL-23 to ear daily 4 times from week 6, day 3 and 4)
